Test results: the supplement of paper PMC10883282
Where a name gives a salt, the structure may show the parent alone. ± gives the standard deviation of the averaged measurements.

Tested on: SK-LMS-1
Assay: relative viability vs DMSO control (72 h) (fraction); higher = more viable cells
Method in brief: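 Relative viability was measured with ATPLite and expressed as percent growth, averaged across up to triplicate wells. Sarcoma cell lines had been seeded in 384-well plates to reach 80–90% confluence, dosed after 24 h, and incubated 72 h at 37 °C, 5% CO2. All data were rescaled on a scale where 1 is full and 0 is none.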

SMILES	relative viability (2 pM)	relative viability (5 pM)	relative viability (15 pM)	relative viability (50 pM)	relative viability (0.00014 µM)	relative viability (0.00041 µM)	relative viability (0.0012 µM)	relative viability (0.0037 µM)	relative viability (0.011 µM)	relative viability (200 fM)	relative viability (600 fM)	relative viability (0.00017 µM)	relative viability (0.00051 µM)	relative viability (0.00152 µM)	relative viability (0.00457 µM)	relative viability (0.01372 µM)	relative viability (0.04115 µM)	relative viability (0.1235 µM)	relative viability (0.3704 µM)	relative viability (1.111 µM)	relative viability (3.333 µM)	relative viability (10 µM)
COc1cc2c(cc1O)CCN[C@]21CS[C@@H]2c3c(OC(C)=O)c(C)c4c(c3[C@H](COC1=O)N1[C@@H]2[C@H]2c3c(cc(C)c(OC)c3O)C[C@@H]([C@@H]1O)N2C)OCO4 [Trabectedin]	1.06 ± 0.08	1.04 ± 0.026	1.03 ± 0.043	1.06 ± 0.045	1.07 ± 0.052	0.848 ± 0.04	0.255 ± 0.014	0.332 ± 0.006	0.35 ± 0.014	1.03 ± 0.076	1.06 ± 0.048	–	–	–	–	–	–	–	–	–	–	–
CN1CCN(c2ccc3nc(-c4c(N)c5c(F)cccc5[nH]c4=O)[nH]c3c2)CC1 [Dovitinib]	–	–	–	–	–	–	–	–	–	–	–	1.08 ± 0.053	1.09 ± 0.049	1.1 ± 0.037	1.14 ± 0.043	1.09 ± 0.063	1.12 ± 0.022	1.11 ± 0.015	1.07 ± 0.035	0.907 ± 0.017	0.654 ± 0.021	0.407 ± 0.0099
C[C@@H]1COCCN1c1cc(-c2ccnn2C)c2ccnc(-c3ccn[nH]3)c2n1	–	–	–	–	–	–	–	–	–	–	–	0.9973 ± 0.0066	0.992 ± 0.064	0.989 ± 0.033	1 ± 0.051	1 ± 0.024	0.928 ± 0.056	0.785 ± 0.035	0.571 ± 0.016	0.371 ± 0.025	0.271 ± 0.0038	0.234 ± 0.0024
Cn1cc(-c2cc3c(N4CCN(c5ncc([C@@](C)(N)c6ccc(F)cc6)cn5)CC4)ncnn3c2)cn1 [Avapritinib]	–	–	–	–	–	–	–	–	–	–	–	0.9488 ± 0.004	0.959 ± 0.072	0.999 ± 0.047	0.989 ± 0.049	0.973 ± 0.061	0.978 ± 0.023	0.9338 ± 0.0068	0.911 ± 0.012	0.877 ± 0.03	0.7843 ± 0.0066	0.829 ± 0.026
C[C@]1(O)C[C@@H](c2nc(-c3ccc4ccc(-c5ccccc5)nc4c3)c3c(N)nccn32)C1 [Linsitinib]	–	–	–	–	–	–	–	–	–	–	–	1.04 ± 0.02	1.07 ± 0.022	1.05 ± 0.067	1.07 ± 0.025	1.04 ± 0.022	1.01 ± 0.025	1.01 ± 0.034	1.03 ± 0.019	1.01 ± 0.026	0.938 ± 0.011	0.71 ± 0.027
Cc1nc(NC(=O)N2CCC[C@H]2C(N)=O)sc1-c1ccnc(C(C)(C)C(F)(F)F)c1 [Alpelisib]	–	–	–	–	–	–	–	–	–	–	–	1.02 ± 0.024	1.04 ± 0.048	1 ± 0.063	1.01 ± 0.022	0.967 ± 0.046	0.951 ± 0.048	0.889 ± 0.043	0.8312 ± 0.0082	0.749 ± 0.055	0.666 ± 0.025	0.54 ± 0.044
COc1cccc2c1C(=O)c1c(O)c3c(c(O)c1C2=O)C[C@@](O)(C(=O)CO)C[C@@H]3O[C@H]1C[C@H](N)[C@H](O)[C@H](C)O1 [Doxorubicin Hydrochloride]	–	–	–	–	–	–	–	–	–	–	–	0.998 ± 0.032	1.02 ± 0.038	1.02 ± 0.044	1.03 ± 0.024	0.967 ± 0.047	0.781 ± 0.011	0.649 ± 0.046	0.313 ± 0.025	0.209 ± 0.069	0.296 ± 0.0043	0.293 ± 0.0053
CNC(=O)c1ccc(-c2cnc3ncc(Cc4ccc5ncccc5c4)n3n2)cc1F [Capmatinib]	–	–	–	–	–	–	–	–	–	–	–	1.02 ± 0.019	1 ± 0.07	0.987 ± 0.015	0.882 ± 0.031	0.617 ± 0.047	0.536 ± 0.0061	0.532 ± 0.0098	0.53 ± 0.013	0.512 ± 0.012	0.496 ± 0.017	0.5154 ± 0.005
Cc1ccc(NC(=O)c2ccc(CN3CCN(C)CC3)cc2)cc1Nc1nc(-c2cccnc2)cs1 [Masitinib]	–	–	–	–	–	–	–	–	–	–	–	1.03 ± 0.013	1.05 ± 0.031	1.03 ± 0.022	1.02 ± 0.029	1.02 ± 0.029	1.04 ± 0.03	1.01 ± 0.018	1.008 ± 0.0068	0.953 ± 0.051	0.605 ± 0.0079	0.103 ± 0.0046
C[C@@H](c1ccc2nccn2c1)n1nnc2ncc(-c3cnn(C)c3)nc21 [Volitinib]	–	–	–	–	–	–	–	–	–	–	–	1.03 ± 0.013	0.979 ± 0.016	0.975 ± 0.027	0.958 ± 0.027	0.763 ± 0.019	0.636 ± 0.017	0.548 ± 0.016	0.554 ± 0.024	0.546 ± 0.019	0.537 ± 0.016	0.538 ± 0.0092
CC(C)(C)c1cc(NC(=O)Nc2ccc(-c3cn4c(n3)sc3cc(OCCN5CCOCC5)ccc34)cc2)no1 [Quizartinib]	–	–	–	–	–	–	–	–	–	–	–	1.05 ± 0.018	1.07 ± 0.038	1.07 ± 0.029	1.03 ± 0.042	1.06 ± 0.043	1.05 ± 0.04	1.06 ± 0.018	0.979 ± 0.04	0.932 ± 0.019	0.832 ± 0.045	0.528 ± 0.029
CC(C)N1CCN(Cc2cnc(-c3cc(-c4cccc5[nH]ccc45)cc4[nH]ncc34)o2)CC1 [Nemiralisib]	–	–	–	–	–	–	–	–	–	–	–	1.05 ± 0.047	1.02 ± 0.033	1.06 ± 0.038	1.04 ± 0.011	1.04 ± 0.047	1.05 ± 0.04	1.042 ± 0.0068	0.994 ± 0.033	0.928 ± 0.012	0.821 ± 0.029	0.658 ± 0.041
C=CC(=O)N1CCC[C@@H](n2nc(-c3ccc(Oc4ccccc4)cc3)c3c(N)ncnc32)C1 [Ibrutinib]	–	–	–	–	–	–	–	–	–	–	–	1.04 ± 0.048	1.01 ± 0.058	1.02 ± 0.045	1.03 ± 0.04	1.04 ± 0.015	1.03 ± 0.016	1.05 ± 0.055	1.05 ± 0.028	1.05 ± 0.012	0.9551 ± 0.0066	0.693 ± 0.032
CN1CCC(COc2cnc(-c3cccc(Cn4nc(-c5cccc(C#N)c5)ccc4=O)c3)nc2)CC1 [Tepotinib]	–	–	–	–	–	–	–	–	–	–	–	1.06 ± 0.027	1.05 ± 0.022	1.01 ± 0.037	1.05 ± 0.039	1 ± 0.047	0.833 ± 0.017	0.597 ± 0.019	0.526 ± 0.0067	0.489 ± 0.0072	0.461 ± 0.02	0.361 ± 0.028
C[C@@H]1CCN(C(=O)CC#N)C[C@@H]1N(C)c1ncnc2[nH]ccc12 [Tofacitinib]	–	–	–	–	–	–	–	–	–	–	–	1.08 ± 0.053	1.05 ± 0.057	1.1 ± 0.057	1.11 ± 0.042	1.09 ± 0.064	1.07 ± 0.031	1.062 ± 0.0089	1.07 ± 0.022	1.07 ± 0.039	1.03 ± 0.039	0.902 ± 0.056
Cc1cc(Nc2ncnc3ccc(NC4=NC(C)(C)CO4)cc23)ccc1Oc1ccn2ncnc2c1 [Tucatinib]	–	–	–	–	–	–	–	–	–	–	–	1.1 ± 0.022	1.09 ± 0.06	1.08 ± 0.041	1.09 ± 0.058	1.08 ± 0.047	1.08 ± 0.034	1.08 ± 0.033	1.09 ± 0.055	1.09 ± 0.045	1.05 ± 0.025	0.7801 ± 0.0053
O=C(Nc1cnn2ccc(N3CCC[C@@H]3c3cc(F)ccc3F)nc12)N1CC[C@H](O)C1 [Larotrectinib]	–	–	–	–	–	–	–	–	–	–	–	1.12 ± 0.03	1.16 ± 0.051	1.13 ± 0.057	1.08 ± 0.015	1.07 ± 0.047	1.11 ± 0.025	1.11 ± 0.028	1.06 ± 0.026	1.08 ± 0.03	1.08 ± 0.032	1.071 ± 0.0057
C=CC(=O)N1CCC([C@@H]2CCNc3c(C(N)=O)c(-c4ccc(Oc5ccccc5)cc4)nn32)CC1 [Zanubrutinib]	–	–	–	–	–	–	–	–	–	–	–	0.996 ± 0.023	1.04 ± 0.055	1.03 ± 0.05	1.051 ± 0.0069	1.01 ± 0.06	1.05 ± 0.015	1.03 ± 0.025	1.08 ± 0.021	1.06 ± 0.012	1.07 ± 0.012	1.05 ± 0.04
CO[C@H]1C[C@@H]2CC[C@@H](C)[C@@](O)(O2)C(=O)C(=O)N2CCCC[C@H]2C(=O)O[C@H]([C@H](C)C[C@@H]2CC[C@@H](OP(C)(C)=O)[C@H](OC)C2)CC(=O)[C@H](C)/C=C(\C)[C@@H](O)[C@@H](OC)C(=O)[C@H](C)C[C@H](C)/C=C/C=C/C=C/1C [Ridaforolimus]	–	–	–	–	–	–	–	–	–	–	–	1.01 ± 0.067	0.903 ± 0.025	0.753 ± 0.016	0.67 ± 0.018	0.632 ± 0.029	0.594 ± 0.031	0.559 ± 0.022	0.563 ± 0.031	0.554 ± 0.021	0.5602 ± 0.0032	0.5145 ± 0.0018
